Literature values in patent publication US12678402B2 (Nasus Pharma Ltd., priority 2020, dated 2026).
Read-outs that look alike come from different tables or passages of the source.

How the values were obtained:
[1] = IN 1 mg up to 12 mg, different indications and formulations
[2] = tested on: nasal epithelia; conditions: in vitro; dissolves in nasal fluid

- Cbaseline Mean (±SD) (0.3 mg IM): 35 ± 23 pg/mL
- Tmax (0.3 mg IM): 1.12 ± 0.717 h
- Cbaseline Mean (±SD) (5 mg IN): 8 ± 6 pg/mL
SMILES: CNC[C@H](O)c1ccc(O)c(O)c1 [Epinephrine]
- adverse events observed (IN epinephrine in saline formulation, healthy adults): transient tremor was observed in one subject and palpitation in two subjects
- heart rate and blood pressure changes (IN epinephrine in saline formulation, healthy adults, at Tmax): Increase in heart rate, and diastolic and systolic blood pressures occurred at Tmax. in most subjects
- serious adverse effects (after IN epinephrine administration, healthy adults): No serious adverse effects were observed
- serious adverse events [1]: no serious adverse events
- absorption after deposition of the powder in the nasal cavity [2]: rapidly absorbed through the nasal epithelia
